The results in this text go back to patent publication US20250136593A1, “DEGRADATION AGENT AND USE THEREOF” (HITGEN INC., priority 2021, published 2025).

In this test the test system is MOLT-4 cells. As to the kind of experiment: Inhibitory activity on MOLT4 cell proliferation by Cell Titer-Glo method. Format: cell-based. As to conditions: Homo sapiens, 72 hours incubation, read-out: IC50 concentration for inhibiting MOLT-4 cells. On the procedure:
Experimental Example 5, Evaluation Experiment of Inhibitory Activity of Compound on MOLT4 Cell Proliferation by Cell Titer-Glo Method
RPMI medium modified (Hyclone), FBS (Corning), Dimethyl Sulfoxide, P/S, CellTiter-Gbo Luminescent Cell Viability Assay (Promega), MOLT-4 cell (ATCC).
MOLT-4 cells were cultured in monolayer in vitro in an incubator containing 5% CO2 air at 37° C. The culture medium was RPMI 1640 with 10% FBS and 1% P/S. 15 μL of MOLT4 cells, containing 5×10^4 cells per ml, was inoculated to a 384-well plate (Corning, 3707), 750 cells/well, and incubated at 37° C. and 5% CO2 for 30 minutes. Then the compound that had been diluted in advance was added, with a total of 9 concentration points, and 2 parallel repetitions for each concentration point. The cell growing group without adding the compound was used as a negative control (maximum signal control), and the culture medium group was used as a blank control (minimum signal control). At the same time, it was ensured that the final DMSO content in each reaction well was 0.1%. The compound and the cells were incubated in a cell culture incubator at 37° C., 5% CO2 for 3 days (72 hours).
The 384-well plate was taken out from the cell culture incubator and allowed to stand at room temperature, equilibrated for 20 to 30 minutes, and then 25 μl of Cell Titer-Glo detection reagent was added to each reaction well, lysed on a shaker for 2 minutes, incubated for 10 minutes, and BMG PHERAStar (Luminescence) was used for reading.
The inhibition rate was calculated based on the luminescence signals: the average value of the negative control (maximum signal control) and the blank control (minimum signal control) was first calculated, then the inhibition rates of the compound at different concentrations for the cells were calculated as follows:
The IC50 of the compound to inhibit cell activity was calculated by fitting with GraphPad Prism 6 using log(inhibitor) vs. response−Variable slope mode. The fitting equation was: Y=Bottom+(Top−Bottom)/(1+10^((LogIC50−X)*HillSlope)), wherein Y represented the inhibition rate and X represented the known compound concentration after Log.
In general terms: ATP-based viability assays read luminescence as a measure of living cells.
On to `C/C=c1/cc(-c2ncc3c(n2)CN(C(=O)c2ccc(/C=C/c4ccc(C#CCN5CCN(CCCCCCc6cccc7c6CN(C6CCC(=O)NC6=O)C7=O)CC5)cc4)cc2)CC3)cn/c1=C/C` (centres unmarked) [Compound C1-2], for which the IC50 is above 200 µM.
Regarding `C=Cc1cc(-c2ncc3c(n2)CN(C(=O)c2ccc(/C=C/c4ccc(C#CCN5CCN(CCCCc6ccc7c(c6)CN(C6CCC(=O)NC6=O)C7=O)CC5)cc4)cc2)CC3)cnc1C=C` (centres unmarked) [Compound C1-3], the IC50 fell in the range of 1 to 10 µM.
Turning to `CNc1nc(-c2cnc3ccccc3c2)nc2c1CCN(C(=O)c1ccc(/C=C/c3ccc(C#CCN4CCN(CCCCCc5cccc6c5CN(C5CCC(=O)NC5=O)C6=O)CC4)cc3)cc1)C2` (centres unmarked) [Compound C1-4], the IC50 is 1 to 10 µM.
As to `C=Cc1cc(-c2nc3c(c(NC)n2)CCN(C(=O)c2ccc(COc4ccc(C#CCN5CCN(CCCNc6cccc7c6C(=O)N(C6CCC(=O)NC6=O)C7=O)CC5)cc4)cc2)C3)cnc1C=C` (centres unmarked) [Compound C2-6], the IC50 lay within 1 to 10 µM.
Regarding `C=Cc1cc(-c2ncc3c(n2)CN(C(=O)c2ccc(/C=C/c4ccc(C#CCN5CCN(CCCCCOc6cccc7c6C(=O)N(C6CCC(=O)NC6=O)C7=O)CC5)nc4)cc2)CC3)cnc1C=C` (centres unmarked) [Compound C3-8], the IC50 is above 200 µM.
Regarding `C=Cc1cc(-c2nc3c(c(NC)n2)CCN(C(=O)c2ccc(COc4ccc(C#CCN5CCN(CCCCCOc6cccc7c6C(=O)N(C6CCC(=O)NC6=O)C7=O)CC5)cc4)cn2)C3)cnc1C=C` (centres unmarked) [Compound C3-11], the IC50 was 100 to 200 µM.
With `C=Cc1cc(-c2ncc3c(n2)CN(C(=O)c2ccc(COc4ccc(C#CCN5CCN(CCCCCOc6cccc7c6C(=O)N(C6CCC(=O)NC6=O)C7=O)CC5)cc4)nc2)CC3)cnc1C=C` (centres unmarked) [Compound C3-12], the IC50 lay in the range of 50 to 100 µM.
For `O=C1CCC(N2Cc3cc(C#CCCCN4CCN(CC#Cc5ccc(/C=C/c6ccc(C(=O)N7CCc8cnc(-c9cnc%10ccccc%10c9)nc8C7)cc6)cc5)CC4)ccc3C2=O)C(=O)N1` (centres unmarked) [Compound D2-3], the IC50 is above 200 µM.
Next, `O=C1CCC(N2Cc3c(C#CCCCCN4CCN(CC#Cc5ccc(/C=C/c6ccc(C(=O)N7CCc8cnc(-c9cnc%10ccccc%10c9)nc8C7)cc6)cc5)CC4)cccc3C2=O)C(=O)N1` (centres unmarked) [Compound D2-5]: 100 to 200 µM; `CNc1nc(-c2cnc3ccccc3c2)nc2c1CCN(C(=O)c1ccc(/C=C/c3ccc(C#CCN4CCN(CCCCC#Cc5cccc6c5CN(C5CCC(=O)NC5=O)C6=O)CC4)cc3)cc1)C2` (centres unmarked) [Compound D2-7]: 100 to 200 µM.
Next, `O=C1CCC(c2cccc(C#CCCN3CCN(CC#Cc4ccc(OCC56CC(C(=O)N7CCc8cnc(-c9cnc%10ccccc%10c9)nc8C7)(C5)C6)cc4)CC3)c2)C(=O)N1` (centres unmarked) [Compound D2-16]: 1 to 10 µM; `O=C1CCC(N2Cc3cc(C4CN(C5CCN(CC#Cc6ccc(OCC78CC(C(=O)N9CCc%10cnc(-c%11cnc%12ccccc%12c%11)nc%10C9)(C7)C8)cc6)CC5)C4)ccc3C2=O)C(=O)N1` (centres unmarked) [Compound F1A-5]: 1 to 10 µM.
`O=C1CCC(N2C(=O)c3ccc(N4CCN(CC5CCN(CC#Cc6ccc(OCC78CC(C(=O)N9CCc%10cnc(-c%11cnc%12ccccc%12c%11)nc%10C9)(C7)C8)cc6)CC5)CC4)cc3C2=O)C(=O)N1` (centres unmarked) [Compound F1B-4]: the IC50 is 1 to 10 µM.
Next, `O=C1CCC(N2Cc3cc(CN4CC(N5CCN(CC#Cc6ccc(/C=C/c7ccc(C(=O)N8CCc9cnc(-c%10cnc%11ccccc%11c%10)nc9C8)cc7)cc6)CC5)C4)ccc3C2=O)C(=O)N1` (centres unmarked) [Compound F2-2]: 50 to 100 µM.
`O=C1CCC(N2Cc3cc(N4CCC(N5CCN(CC#Cc6ccc(/C=C/c7ccc(C(=O)N8CCc9cnc(-c%10cnc%11ccccc%11c%10)nc9C8)cc7)cc6)CC5)CC4)ccc3C2=O)C(=O)N1` (centres unmarked) [Compound F2-3]: the IC50 is 1 to 10 µM.
With `O=C1CCC(N2Cc3c(CCCN4CC(N5CCN(CC#Cc6ccc(/C=C/c7ccc(C(=O)N8CCc9cnc(-c%10cnc%11ccccc%11c%10)nc9C8)cc7)cc6)CC5)C4)cccc3C2=O)C(=O)N1` (centres unmarked) [Compound F2-5], the IC50 was above 200 µM.
With `O=C1CCC(N2Cc3c(CCCN4CCC(N5CCN(CC#Cc6ccc(/C=C/c7ccc(C(=O)N8CCc9cnc(-c%10cnc%11ccccc%11c%10)nc9C8)cc7)cc6)CC5)CC4)cccc3C2=O)C(=O)N1` (centres unmarked) [Compound F2-6], the IC50 was in the range of 100 to 200 µM.
Regarding `CNc1nc(-c2cnc3ccccc3c2)nc2c1CCN(C(=O)c1ccc(/C=C/c3ccc(C#CCN4CCN(C5CCN(c6ccc7c(c6)CN(C6CCC(=O)NC6=O)C7=O)CC5)CC4)cc3)cc1)C2` (centres unmarked) [Compound F2-7], the IC50 fell in the range of 1 to 10 µM.
Next, `O=C1CCC(N2Cc3cc(N4CCC(N5CCN(CC#Cc6ccc(OCC78CC(C(=O)N9CCc%10cnc(-c%11cnc%12ccccc%12c%11)nc%10C9)(C7)C8)cc6)CC5)CC4)ccc3C2=O)C(=O)N1` (centres unmarked) [Compound F2-10]: 1 to 10 µM; `O=C1CCC(N2C(=O)c3cccc(N4CC5(CC(N6CCN(CC#Cc7ccc(/C=C/c8ccc(C(=O)N9CCc%10cnc(-c%11cnc%12ccccc%12c%11)nc%10C9)cc8)cc7)CC6)C5)C4)c3C2=O)C(=O)N1` (centres unmarked) [Compound F3A-1]: above 200 µM; `O=C1CCC(N2Cc3c(CN4CC5(CC(N6CCN(CC#Cc7ccc(/C=C/c8ccc(C(=O)N9CCc%10cnc(-c%11cnc%12ccccc%12c%11)nc%10C9)cc8)cc7)CC6)C5)C4)cccc3C2=O)C(=O)N1` (centres unmarked) [Compound F3A-2]: 100 to 200 µM.
On to `O=C1CCC(N2Cc3c(cccc3N3CC4(CC(CN5CCN(CC#Cc6ccc(/C=C/c7ccc(C(=O)N8CCc9cnc(-c%10cnc%11ccccc%11c%10)nc9C8)cc7)cc6)CC5)C4)C3)C2=O)C(=O)N1` (centres unmarked) [Compound F3A-4], for which the IC50 fell in the range of 100 to 200 µM.
With `CNc1nc(-c2cnc3ccccc3c2)nc2c1CCN(C(=O)c1ccc(/C=C/c3ccc(C#CCN4CCN(C(=O)CCCCCC(=O)N[C@H](C(=O)N5C[C@H](O)C[C@H]5C(=O)NCc5ccc(-c6scnc6C)cc5)C(C)(C)C)CC4)cc3)cc1)C2` [Compound G1-3], the IC50 is above 200 µM.
